Laboratory results published in patent US20200215153A1, “CANCER TREATMENT AND/OR PREVENTION THROUGH REGULATION OF UBIQUITINATION” (Academia Sinica, priority 2018, published 2020).
Peptide text beside a SMILES is read from it. * marks the point of attachment. Cbz = O=C(OCc1ccccc1)*

How the values were obtained:
Format in all cases: cell-based
[1] = test system: TNBC cells (Hs578T, MDA-MB157, MDA-MB468); experiment: MTT assay for viability of TNBC cells transfected with BIKDD and treated with IRE1α inhibitor; conditions: combined with BIKDD
Method: FIG. 7. […] (a, c) MTT assay for the viability of indicated TNBC cells transfected with […] CMV-BIKDD (a) or VISA-BIKDD (c) and treated with 10 or 100 μM STF-083010 for 48 h. CI values are indicated. (b) Western blot analysis of cleaved PARP in indicated TNBC cells transfected with CMV-BIKDD and treated with 100 μM STF-083010 for 36 h. […] Tumor volume were measured at indicated days and plotted. Data are mean±s.d., *P<0.05; ***P<0.001 by two-way ANOVA with Turkey's post test, n=5. Tumors were surgically removed at day 49 and their sizes are shown on the right. (e) Mice orthotopically implanted with Hs578T cells and treated with VISA-BIKDD lipid nanoparticle together with STF-083010 or DMSO starting at day 28 after tumor cell implantation (see Materials and Methods). Tumor volume were measured at indicated days and plotted. Data are mean±s.d., ***P<0.001 by two-way ANOVA with Turkey's post test, n=5. Tumors were surgically removed at day 66 and their sizes are shown on the right.
MDA-MB157 and MDA-MB 468 cells were seeded at a density of 5×10^3 cells and Hs578T cells were at 2×10^3 cells in 96-well plates. Cells were transfected with BIKDD. In the next day, cells were treated with IRE1α inhibitor or DMSO for 48 h and then with 0.4 mg/ml methylthiazolyldiphenyltetrazolium bromide (MTT) (Sigma) for 2 h. Cells were dissolved in DMSO, followed by absorbance measurement at 590 nm. The combination index (CI) was calculated using the equation: CI=CA/IC50A+CB/IC50B. CA and CB represent the concentrations of the two agents for combined treatment. IC50A and IC50B are the IC50 values for each single treatment, which were determined by treating cells with various dosages of each agent followed by MTT assay. (CI<1) indicates a synergistic effect, (CI>1) corresponds to an antagonistic effect, and (CI=1) represents an additive effect.

[2] = test system: ASB11 mRNA; experiment: RT-qPCR analysis of ASB11 mRNA expression in HCT116 cells treated with genotoxic agents; conditions: p53-proficient HCT116 cells, 24 h; FIG. 5a
Method: (§1) FIG. 5. […] (a) RT-qPCR analysis of ASB11 mRNA expression in indicated HCT116 cells treated with indicated dosages of doxorubicin or 5-FU for 24 h. […] (b) Western blot analysis of BIK and ASB11 expression in indicated HCT116 cells treated as in (a). (c) HCT116 p53^+/+ cells stably expressing control or ASB11 shRNA were treated with 10 μM 5-FU for 24 h and then with cycloheximide for indicated time points. Cells were lysed for Western blot analysis of BIK expression and the relative amounts of BIK are indicated on the bottom. The expression levels of ASB11 and BIK in the stable lines are shown on the bottom panel. (d) Western blot analysis of IRE1α expression and RT-qPCR analysis of XBP1 mRNA splicing in indicated HCT116 cells treated with 3 μg/ml doxorubicin or 10 μM 5-FU for 24 h. (e) RT-qPCR analysis of ASB11 and XBPls mRNA expression in HCT116 cells transfected with XBP1s and/or treated with 3 μg/ml doxorubicin for 16 h. […] (f) Analysis of BIK ubiquitination in HCT116 cells transfected with indicated constructs and/or treated with 3 μg/ml doxorubicin for 16 h. Total mRNA was extracted from cells using TRIZOL reagent (Invitrogen), and equal amounts of RNA were reverse transcribed to cDNA using the iScript™ cDNA Synthesis Kit (Bio-Rad). Quantitative real-time PCR was performed using the Power SYBR Green PCR Master kit (Applied Biosystems). […]

[3] = test system: ASB11; experiment: Western blot analysis of ASB11 expression in HCT116 cells; conditions: p53-dependent manner, FIG. 5b
Method: (§2) FIG. 5. […] (a) RT-qPCR analysis of ASB11 mRNA expression in indicated HCT116 cells treated with indicated dosages of doxorubicin or 5-FU for 24 h. […] (b) Western blot analysis of BIK and ASB11 expression in indicated HCT116 cells treated as in (a). (c) HCT116 p53^+/+ cells stably expressing control or ASB11 shRNA were treated with 10 μM 5-FU for 24 h and then with cycloheximide for indicated time points. Cells were lysed for Western blot analysis of BIK expression and the relative amounts of BIK are indicated on the bottom. The expression levels of ASB11 and BIK in the stable lines are shown on the bottom panel. (d) Western blot analysis of IRE1α expression and RT-qPCR analysis of XBP1 mRNA splicing in indicated HCT116 cells treated with 3 μg/ml doxorubicin or 10 μM 5-FU for 24 h. (e) RT-qPCR analysis of ASB11 and XBPls mRNA expression in HCT116 cells transfected with XBP1s and/or treated with 3 μg/ml doxorubicin for 16 h. […]
(§3) Cell extraction was performed with RIPA lysis buffer containing 50 mM Tris (pH 8.0), 0.15 M NaCl, 1% NP40, 1% sodium deoxycholate, 0.1% SDS, 1 mM PMSF, 1 µg/ml aprotinin, and 1 µg/ml leupeptin. […] Immunoprecipitation was performed and analyzed as previously described. […] The beads were washed with RIPA lysis buffer and the bound proteins were analyzed by Western blot.

[4] = test system: BIK; experiment: Western blot analysis of BIK expression in HCT116 cells; conditions: p53-dependent manner, FIG. 5b
Method: as §2, §3

[5] = test system: BIK; experiment: Cycloheximide-chase analysis of BIK protein stability in HCT116 p53+/+ cells; conditions: p53-proficient HCT116 cells, 10 μM 5-FU 24 h then cycloheximide; FIG. 5c
Method: FIG. 5. […] (a) RT-qPCR analysis of ASB11 mRNA expression in indicated HCT116 cells treated with indicated dosages of doxorubicin or 5-FU for 24 h. […] (b) Western blot analysis of BIK and ASB11 expression in indicated HCT116 cells treated as in (a). (c) HCT116 p53^+/+ cells stably expressing control or ASB11 shRNA were treated with 10 μM 5-FU for 24 h and then with cycloheximide for indicated time points. Cells were lysed for Western blot analysis of BIK expression and the relative amounts of BIK are indicated on the bottom. The expression levels of ASB11 and BIK in the stable lines are shown on the bottom panel. (d) Western blot analysis of IRE1α expression and RT-qPCR analysis of XBP1 mRNA splicing in indicated HCT116 cells treated with 3 μg/ml doxorubicin or 10 μM 5-FU for 24 h. (e) RT-qPCR analysis of ASB11 and XBPls mRNA expression in HCT116 cells transfected with XBP1s and/or treated with 3 μg/ml doxorubicin for 16 h. […] (f) Analysis of BIK ubiquitination in HCT116 cells transfected with indicated constructs and/or treated with 3 μg/ml doxorubicin for 16 h.

[6] = test system: IRE1α; experiment: Western blot analysis of IRE1α expression in HCT116 cells; conditions: 3 μg/ml doxorubicin or 10 μM 5-FU, 24 h, p53-dependent manner, FIG. 5d
Method: as §2, §3

[7] = test system: XBP1 mRNA splicing; experiment: RT-qPCR analysis of XBP1 mRNA splicing in HCT116 cells; conditions: 3 μg/ml doxorubicin or 10 μM 5-FU, 24 h, p53-dependent manner, FIG. 5d
Method: as §1

[8] = test system: BIK; experiment: Western blot analysis of BIK levels in 293T cells
Method: FIG. 2. […] (d) Western blot analysis of BIK levels in indicated cells stably expressing control or ASB11 shRNAs.
Cell extraction was performed with RIPA lysis buffer containing 50 mM Tris (pH 8.0), 0.15 M NaCl, 1% NP40, 1% sodium deoxycholate, 0.1% SDS, 1 mM PMSF, 1 µg/ml aprotinin, and 1 µg/ml leupeptin. Western blot was performed with the standard protocol. For an efficient detection of BIK by Western blot, Tricine-SDS-PAGE was used. Western blot analyses of other proteins were performed with Glycine-SDS-PAGE. Immunoprecipitation was performed and analyzed as previously described. Briefly, cell lysates were incubated with primary antibody for overnight. The Pure Proteome Protein A/G Magnetic Beads (LSKMAGA/G10, EMD Millipore) were then added into cell lysates and incubated for 1.5 h. The beads were washed with RIPA lysis buffer and the bound proteins were analyzed by Western blot.

[9] = test system: ASB11 mRNA; experiment: RT-qPCR analysis of ASB11 mRNA in H1299 cells treated with doxorubicin; conditions: p53-transfected H1299 cells
Method: Total mRNA was extracted from cells using TRIZOL reagent (Invitrogen), and equal amounts of RNA were reverse transcribed to cDNA using the iScript™ cDNA Synthesis Kit (Bio-Rad). Quantitative real-time PCR was performed using the Power SYBR Green PCR Master kit (Applied Biosystems). Amplification was performed on an ABI 7500 Fast Real-Time PCR system and GAPDH was used as an internal control.

[10] = test system: ASB11; experiment: Western blot analysis of ASB11 protein expression under ER stress; conditions: multiple cell lines; 10 μg/ml tunicamycin or 200 nM thapsigargin, 16 h; FIG. 4a
Method: FIG. 4. ER stress stimulates BIK ubiquitination and degradation through ASB11 and p97. (a) Western blot analysis of BIK and ASB11 levels in 293T cells treated with 10 μg/ml tunicamycin or 200 nM of thapsigargin for 16 h. (b) Western blot analysis of BIK levels in 293T cells treated with 10 μg/ml tunicamycin for 12 h and then with 50 μg/ml cycloheximide for indicated time periods. The relative amounts of BIK are indicated on the bottom. (c, e) Analysis of endogenous (c) or exogenous (e) BIK ubiquitination in 293T cells (c) or 293T derivatives as in FIG. 2d (e) transfected with indicated constructs and treated with tunicamycin. (d) Western blot analysis of 293T derivatives as in FIG. 2d treated with 10 μg/ml tunicamycin for 16 h. (f) Western blot analysis of BIK levels in 293T derivatives co-treated with 10 μg/ml tunicamycin and MG132 for 16 h. (g) Western blot analysis of BIK expression in 293T cells co-treated with tunicamycin and 10 μM CB-5083 for 16 h. […]
as §3

Cc1cc(=O)oc2c(C=O)c(O)ccc12 [4μ8C, 7-Hydroxy-4-methyl-2-oxo-2H-1-benzopyran-8-carboxaldehyde]
killing effect of BIKDD on TNBC cells on combined administration [1]: enhanced

O=c1[nH]cc(F)c(=O)[nH]1 [5-FU, 5-fluorouracil]
ASB11 mRNA level [2]: reduced
ASB11 protein level [3]: downregulated
BIK protein level [4]: upregulated
BIK protein stability [5]: increased
IRE1a level [6]: reduced
XBP1 mRNA splicing [7]: reduced

Cc1cc2c(C(N)=O)cccc2n1-c1nc2c(c(NCc3ccccc3)n1)COCC2 [CB-5083]
effect on BIK downregulation induced by ER stress or ASB11 overexpression ([8]; 293T cells, 10 μM CB-5083, 16 h, co-treated with tunicamycin, FIG. 4g): abrogated

CC(C)C[C@@H](C=O)NC(=O)[C@H](CC(C)C)NC(=O)[C@H](CC(C)C)NC(=O)OCc1ccccc1 [MG132] (Cbz-Leu-Leu-Leu-aldehyde)
effect on the decrease of BIK protein level caused by ASB11 overexpression ([8]; 293T cells transfected with ASB11, FIG. 2b): reversed

COc1cccc2c1C(=O)c1c(O)c3c(c(O)c1C2=O)C[C@@](O)(C(=O)CO)C[C@@H]3O[C@H]1C[C@H](N)[C@H](O)[C@H](C)O1 [doxorubicin]
ASB11 mRNA level [2]: reduced
ASB11 mRNA [9]: downregulated
ASB11 protein level [3]: downregulated
BIK protein level [4]: upregulated
IRE1a level [6]: reduced
XBP1 mRNA splicing [7]: reduced

C/C=C(/C)C(=O)O[C@H]1C(C)=C2[C@H]([C@@H]1OC(=O)CCCCCCC)[C@@](C)(OC(C)=O)C[C@H](OC(=O)CCC)[C@@]1(O)[C@H]2OC(=O)[C@@]1(C)O [thapsigargin]
ASB11 protein expression [10]: elevated
BIK protein level ([8]; multiple cell lines, 10 μg/ml tunicamycin or 200 nM thapsigargin, 16 h, FIG. 4a): reduced
